From patent US20240218022A1, “ANTI-VISTA MACROCYCLIC PEPTIDES AND COMPOSITIONS” (BRISTOL-MYERS SQUIBB COMPANY, priority 2022, published 2024) come the findings set out here.

Positions of bridges follow the written chain, without caps; N, C: chain ends. Non-standard residues stand in square brackets, D forms with d. Residues, ends and D or L forms follow the SMILES beside them. N(3-phenylpropyl)Gly = O=C(O)CNCCCc1ccccc1; Cit = NC(=O)NCCC[C@H](N)C(=O)O; Ahp(2) = CCCCC[C@H](N)C(=O)O; NMeNle = CCCC[C@H](NC)C(=O)O; Tle = CC(C)(C)[C@H](N)C(=O)O; NHexGly = CCCCCCNCC(=O)O; Nle = CCCC[C@H](N)C(=O)O; Orn = NCCC[C@H](N)C(=O)O

In the first experiment the target is T1, mouse VISTA (mVISTA) (Mus musculus, UniProt Q9D659).
T1 construct: expressed in transfected cells; host or cells: Human embryonic kidney 293T cells
T1 sequence (Q9D659 33-308): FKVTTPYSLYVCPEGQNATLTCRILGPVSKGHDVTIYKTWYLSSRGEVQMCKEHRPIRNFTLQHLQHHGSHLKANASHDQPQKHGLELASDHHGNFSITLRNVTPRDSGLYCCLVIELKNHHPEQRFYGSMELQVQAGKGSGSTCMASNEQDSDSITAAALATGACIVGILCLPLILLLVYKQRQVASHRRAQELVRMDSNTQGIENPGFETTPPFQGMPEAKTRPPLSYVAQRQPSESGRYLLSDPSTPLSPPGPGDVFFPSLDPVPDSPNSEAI
Nature of the experiment: Cell-Based Binding High-Content Assay For mVISTA (HC CBA mVISTA). Particulars: 293T cells expressing mouse VISTA; competition with biotinylated peptide (2 nM); read-out: CBA mVISTA IC50. In short, it runs like this: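 Read-out: Alexa 647–streptavidin signal imaged on fixed, Hoechst-stained mVISTA-293T cells, with IC50 taken from a four-parameter logistic curve. Compounds competed with 2 nM biotinylated peptide for 30 min at room temperature, tested under both no-wash and wash (1 h compound, media exchange, 1 h) formats.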
The IC50 is the concentration that gives 50% inhibition. In the case of `CCCCCCN1CC(=O)N[C@@H](Cc2ccc(O)cc2)C(=O)N[C@@H](CC(C)C)C(=O)NCC(=O)N[C@@H](CCCNC(=N)N)C(=O)N(C)[C@@H](CCCC)C(=O)N[C@@H](CCCCC)C(=O)N2CCC[C@H]2C(=O)N[C@@H](C(C)C)C(=O)N[C@@H](CO)C(=O)N[C@H](C(=O)NCC(N)=O)CSCC(=O)N[C@@H](Cc2ccccc2)C(=O)N[C@@H](Cc2ccc(O)cc2)C(=O)N[C@@H](CC(=O)O)C1=O` [Example 1081] ({CH2CO}-FYD[NHexGly]YLGR[NMeNle][Ahp(2)]PVSCG-NH2; thioether N-14), the IC50 came out at 4.6 nM. As to `CCCCCCN1CC(=O)N[C@@H](Cc2ccc(O)cc2)C(=O)N[C@@H](CCCC)C(=O)N[C@@H](CC(N)=O)C(=O)N[C@@H](CCCNC(N)=O)C(=O)N(C)[C@@H](CCCC)C(=O)N[C@@H](CCCCC)C(=O)N2CCC[C@H]2C(=O)N[C@@H](C(C)C)C(=O)N[C@@H](CC(=O)O)C(=O)N[C@H](C(=O)NCC(=O)O)CSCC(=O)N[C@@H](Cc2ccccc2)C(=O)N[C@@H](Cc2ccc(O)cc2)C(=O)N[C@@H](CC(=O)O)C1=O` [Example 1082] ({CH2CO}-FYD[NHexGly]Y[Nle]N[Cit][NMeNle][Ahp(2)]PVDCG-OH; thioether N-14), the IC50 turned out to be 8.1 nM. Still for that read-out and setting: to `CCCCCCN1CC(=O)N[C@@H](Cc2ccc(O)cc2)C(=O)N[C@@H](CCCC)C(=O)N[C@@H](CC(N)=O)C(=O)N[C@@H](CCCNC(=N)N)C(=O)N(C)[C@@H](CCCC)C(=O)N[C@@H](CCCCC)C(=O)N2CCC[C@H]2C(=O)N[C@@H](C(C)C)C(=O)N[C@@H](CC(=O)O)C(=O)N[C@H](C(=O)NCC(=O)O)CSCC(=O)N[C@@H](Cc2ccccc2)C(=O)N[C@@H](Cc2ccc(O)cc2)C(=O)N[C@@H](CC(=O)O)C1=O` [Example 1083] ({CH2CO}-FYD[NHexGly]Y[Nle]NR[NMeNle][Ahp(2)]PVDCG-OH; thioether N-14) belongs 39.1 nM.

The experiment is the same for the next values; noted with them: 293T cells expressing mouse VISTA; competition with biotinylated peptide (2 nM); read-out: HC CBA mVISTA IC50.
Turning to `CCCCC[C@@H]1NC(=O)[C@H](CCCC)N(C)C(=O)[C@H](CCCN)NC(=O)[C@H](CC(N)=O)NC(=O)[C@H](CC(C)C)NC(=O)[C@H](Cc2ccc(O)cc2)NC(=O)CN(CCCc2ccccc2)C(=O)[C@H](CC(=O)O)NC(=O)[C@H](Cc2ccc(O)cc2)NC(=O)[C@H](Cc2ccccc2)NC(=O)CSC[C@@H](C(=O)NCC(N)=O)NC(=O)[C@H](CO)NC(=O)[C@H](C(C)(C)C)NC(=O)[C@@H]2CCCN2C1=O` [Example 1084] ({CH2CO}-FYD[N(3-phenylpropyl)Gly]YLN[Orn][NMeNle][Ahp(2)]P[Tle]SCG-NH2; thioether N-14), the IC50 was 37.8 nM. Take `CCCCC[C@@H]1NC(=O)[C@H](CCCC)N(C)C(=O)[C@H](CCCN)NC(=O)[C@H](CC(N)=O)NC(=O)[C@H](CC(C)C)NC(=O)[C@H](Cc2ccc(O)cc2)NC(=O)CN(CCCc2ccccc2)C(=O)[C@H](CC(=O)O)NC(=O)[C@H](Cc2ccc(O)cc2)NC(=O)[C@H](Cc2ccccc2)NC(=O)CSC[C@@H](C(=O)NCC(N)=O)NC(=O)[C@H](CO)NC(=O)[C@H](C(C)C)NC(=O)[C@@H]2CCCN2C1=O` [Example 1085] ({CH2CO}-FYD[N(3-phenylpropyl)Gly]YLN[Orn][NMeNle][Ahp(2)]PVSCG-NH2; thioether N-14): the IC50 was 31.8 nM. Same read-out and setting: to `CCCCC[C@@H]1NC(=O)[C@H](CCCC)N(C)C(=O)[C@H](CCCNC(=N)N)NC(=O)[C@H](CC(N)=O)NC(=O)[C@H](CC(C)C)NC(=O)[C@H](Cc2ccc(O)cc2)NC(=O)CN(CCCc2ccccc2)C(=O)[C@H](CC(=O)O)NC(=O)[C@H](Cc2ccc(O)cc2)NC(=O)[C@H](Cc2ccccc2)NC(=O)CSC[C@@H](C(=O)NCC(N)=O)NC(=O)[C@H](CO)NC(=O)[C@H](C(C)C)NC(=O)[C@@H]2CCCN2C1=O` [Example 1086] ({CH2CO}-FYD[N(3-phenylpropyl)Gly]YLNR[NMeNle][Ahp(2)]PVSCG-NH2; thioether N-14) belongs 40.7 nM; to `CCCCC[C@@H]1NC(=O)[C@H](CCCC)N(C)C(=O)[C@H](CCCNC(=N)N)NC(=O)[C@H](CC(N)=O)NC(=O)[C@H](CC(C)C)NC(=O)[C@H](Cc2ccc(O)cc2)NC(=O)CN(CCCc2ccccc2)C(=O)[C@H](CC(=O)O)NC(=O)[C@H](Cc2ccc(O)cc2)NC(=O)[C@H](Cc2ccccc2)NC(=O)CSC[C@@H](C(=O)NCC(N)=O)NC(=O)[C@H](CO)NC(=O)[C@H](C(C)(C)C)NC(=O)[C@@H]2CCCN2C1=O` [Example 1087] ({CH2CO}-FYD[N(3-phenylpropyl)Gly]YLNR[NMeNle][Ahp(2)]P[Tle]SCG-NH2; thioether N-14), 34.7 nM; to `CCCCCCN1CC(=O)N[C@@H](Cc2ccc(O)cc2)C(=O)N[C@@H](CCCCC)C(=O)N[C@@H](CC(N)=O)C(=O)N[C@@H](CCCNC(=N)N)C(=O)N[C@@H](C)C(=O)N[C@@H](CCCCC)C(=O)N2CCC[C@H]2C(=O)N[C@@H](C(C)C)C(=O)N[C@@H](CO)C(=O)N[C@H](C(=O)NCC(N)=O)CSCC(=O)N[C@@H](Cc2ccccc2)C(=O)N[C@@H](Cc2ccc(O)cc2)C(=O)N[C@@H](CC(=O)O)C1=O` [Example 1089] ({CH2CO}-FYD[NHexGly]Y[Ahp(2)]NRA[Ahp(2)]PVSCG-NH2; thioether N-14), 37.9 nM. Same read-out and setting: to `CCCCCCN1CC(=O)N[C@@H](Cc2ccc(O)cc2)C(=O)N[C@@H](CCCCC)C(=O)N[C@@H](CC(N)=O)C(=O)N[C@@H](CCCNC(=N)N)C(=O)N[C@@H](C)C(=O)N[C@@H](CCCCC)C(=O)N2CCC[C@H]2C(=O)N[C@@H](C(C)C)C(=O)N[C@@H](CO)C(=O)N[C@H](C(=O)NCC(=O)O)CSCC(=O)N[C@@H](Cc2ccccc2)C(=O)N[C@@H](Cc2ccc(O)cc2)C(=O)N[C@@H](CC(=O)O)C1=O` [Example 1090] ({CH2CO}-FYD[NHexGly]Y[Ahp(2)]NRA[Ahp(2)]PVSCG-OH; thioether N-14) belongs 8 nM; to `CCCCCCN1CC(=O)N[C@@H](Cc2ccc(O)cc2)C(=O)N[C@@H](CC(C)C)C(=O)NCC(=O)N[C@@H](CCCNC(=N)N)C(=O)N[C@@H](CCCCN)C(=O)N[C@@H](CCCCC)C(=O)N2CCC[C@H]2C(=O)N[C@@H](C(C)C)C(=O)N[C@@H](CO)C(=O)N[C@H](C(=O)NCC(=O)O)CSCC(=O)N[C@@H](Cc2ccccc2)C(=O)N[C@@H](Cc2ccc(O)cc2)C(=O)N[C@@H](CC(=O)O)C1=O` [Example 1091] ({CH2CO}-FYD[NHexGly]YLGRK[Ahp(2)]PVSCG-OH; thioether N-14), 5.3 nM; to `CCCCCCN1CC(=O)N[C@@H](Cc2ccc(O)cc2)C(=O)N[C@@H](CC(C)C)C(=O)NCC(=O)N[C@@H](CCCNC(=N)N)C(=O)N[C@@H](CCCCN)C(=O)N[C@@H](CCCCC)C(=O)N2CCC[C@H]2C(=O)N[C@@H](C(C)C)C(=O)N[C@@H](CO)C(=O)N[C@H](C(=O)NCC(N)=O)CSCC(=O)N[C@@H](Cc2ccccc2)C(=O)N[C@@H](Cc2ccc(O)cc2)C(=O)N[C@@H](CC(=O)O)C1=O` [Example 1092] ({CH2CO}-FYD[NHexGly]YLGRK[Ahp(2)]PVSCG-NH2; thioether N-14), 27.1 nM. Still for that read-out and setting: to `CCCCCCN1CC(=O)N[C@@H](Cc2ccc(O)cc2)C(=O)N[C@@H](CCCCC)C(=O)NCC(=O)N[C@@H](CCCNC(=N)N)C(=O)N[C@@H](Cc2ccc(O)cc2)C(=O)N[C@@H](CCCCC)C(=O)N2CCC[C@H]2C(=O)N[C@@H](C(C)C)C(=O)N[C@@H](CO)C(=O)N[C@H](C(=O)NCC(N)=O)CSCC(=O)N[C@@H](Cc2ccccc2)C(=O)N[C@@H](Cc2ccc(O)cc2)C(=O)N[C@@H](CC(=O)O)C1=O` [Example 1093] ({CH2CO}-FYD[NHexGly]Y[Ahp(2)]GRY[Ahp(2)]PVSCG-NH2; thioether N-14) belongs 40.4 nM.
